Results taken from ChEMBL document CHEMBL1201862, “PubChem BioAssay data set” (2004).
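Five concentrations, 48 hours, 96-well plates. The concentration for 50% growth inhibition is given as GI50.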 Activity calls are given as the source filed them. Cut-off read from the data, not from the text of the source: active = GI50 up to about 1.1 µM and inactive = higher.

Columns and labels:
Test in all cases: NCI anticancer screen, dose series, 48 h
COLO 205 = system: COLO 205
TK-10 = system: TK-10
UO-31 = system: UO-31
SNB-19 = system: SNB-19
NCI-H460 = system: NCI-H460
786-0 = system: 786-0
T47D = system: T47D
HCT-116 = system: HCT-116
NCI-H23 = system: NCI-H23
MOLT-4 = system: MOLT-4
IGROV-1 = system: IGROV-1
HOP-62 = system: HOP-62
MCF7 = system: MCF7
M14 = system: M14
SF-295 = system: SF-295
NCI/ADR-RES = system: NCI/ADR-RES
SK-MEL-2 = system: SK-MEL-2
OVCAR-4 = system: OVCAR-4
U-251 = system: U-251
HT-29 = system: HT-29
NCI-H522 = system: NCI-H522
CCRF-CEM = system: CCRF-CEM
PC-3 = system: PC-3
SF-268 = system: SF-268
OVCAR-3 = system: OVCAR-3
DU-145 = system: DU-145
OVCAR-5 = system: OVCAR-5
A498 = system: A498
MDA-N = system: MDA-N
LOX IMVI = system: LOX IMVI
SK-OV-3 = system: SK-OV-3
NCI-H226 = system: NCI-H226
Hs-578T = system: Hs-578T
SK-MEL-28 = system: SK-MEL-28
ACHN = system: ACHN
RXF 393 = system: RXF 393
SNB-75 = system: SNB-75
CAKI-1 = system: CAKI-1
SN12C = system: SN12C
SF-539 = system: SF-539
MDA-MB-435 = system: MDA-MB-435
EKVX = system: EKVX
HCC 2998 = system: HCC 2998
HOP-92 = system: HOP-92
SK-MEL-5 = system: SK-MEL-5
MDA-MB-231 = system: MDA-MB-231
KM12 = system: KM12
UACC-62 = system: UACC-62
Malme-3M = system: Malme-3M
HL-60 = system: HL-60
SW-620 = system: SW-620
BT-549 = system: BT-549
HCT-15 = system: HCT-15
RPMI-8226 = system: RPMI-8226
A549 = system: A549
OVCAR-8 = system: OVCAR-8
SR = system: SR
UACC-257 = system: UACC-257

## COc1cc(OC)c2nc3occc3c(OC)c2c1
COLO 205
  GI50: > 100 µM (inactive)
TK-10
  GI50: > 100 µM (inactive)
UO-31
  GI50: 33.7 µM (inactive)
SNB-19
  GI50: 66.4 µM (inactive)
NCI-H460
  GI50: 78 µM (inactive)
786-0
  GI50: 96.4 µM (inactive)
T47D
  GI50: 61.2 µM (inactive)
HCT-116
  GI50: 76 µM (inactive)
NCI-H23
  GI50: > 100 µM (inactive)
MOLT-4
  GI50: 61.9 µM (inactive)
IGROV-1
  GI50: > 100 µM (inactive)
HOP-62
  GI50: > 100 µM (inactive)
MCF7
  GI50: > 100 µM (inactive)
M14
  GI50: > 100 µM (inactive)
SF-295
  GI50: 62.8 µM (inactive)
NCI/ADR-RES
  GI50: > 100 µM (inactive)
SK-MEL-2
  GI50: > 100 µM (inactive)
OVCAR-4
  GI50: 37.1 µM (inactive)
U-251
  GI50: > 100 µM (inactive)
HT-29
  GI50: > 100 µM (inactive)
NCI-H522
  GI50: > 100 µM (inactive)
CCRF-CEM
  GI50: > 100 µM (inactive)
PC-3
  GI50: > 100 µM (inactive)
SF-268
  GI50: > 100 µM (inactive)
OVCAR-3
  GI50: > 100 µM (inactive)
DU-145
  GI50: > 100 µM (inactive)
OVCAR-5
  GI50: > 100 µM (inactive)
A498
  GI50: > 100 µM (inactive)
MDA-N
  GI50: > 100 µM (inactive)
LOX IMVI
  GI50: 83.2 µM (inactive)
SK-OV-3
  GI50: 97.5 µM (inactive)
NCI-H226
  GI50: > 100 µM (inactive)
Hs-578T
  GI50: > 100 µM (inactive)
SK-MEL-28
  GI50: > 100 µM (inactive)
ACHN
  GI50: 41.7 µM (inactive)
RXF 393
  GI50: 80 µM (inactive)
SNB-75
  GI50: 67.8 µM (inactive)
CAKI-1
  GI50: 77.4 µM (inactive)
SN12C
  GI50: 71.1 µM (inactive)
SF-539
  GI50: > 100 µM (inactive)
MDA-MB-435
  GI50: > 100 µM (inactive)
EKVX
  GI50: 64.7 µM (inactive)
HCC 2998
  GI50: 41.6 µM (inactive)
HOP-92
  GI50: > 100 µM (inactive)
SK-MEL-5
  GI50: 45.7 µM (inactive)
MDA-MB-231
  GI50: > 100 µM (inactive)
KM12
  GI50: > 100 µM (inactive)
UACC-62
  GI50: > 100 µM (inactive)
Malme-3M
  GI50: > 100 µM (inactive)
HL-60
  GI50: 94.8 µM (inactive)
SW-620
  GI50: > 100 µM (inactive)
BT-549
  GI50: > 100 µM (inactive)
HCT-15
  GI50: 30.4 µM
RPMI-8226
  GI50: 27.7 µM (inactive)
A549
  GI50: > 100 µM (inactive)
OVCAR-8
  GI50: 99.5 µM (inactive)
SR
  GI50: 55.7 µM (inactive)
UACC-257
  GI50: > 100 µM (inactive)
